From ChEMBL document CHEMBL5154766, “Synthesis, bioevaluation and molecular dynamics of pyrrolo-pyridine benzamide derivatives as potential antitumor agents in vitro and in vivo” (Eur J Med Chem, 2022) come the findings set out here.

pIC50: −log10 of the molar value. Activity calls are given as the source filed them. The rule behind the calls is not given here.

The first data set has as its system A549. As to the kind of experiment: Antitumor activity against human A549 cells xenografted in BALB/c nude mouse assessed as reduction in Ki67 expression at 20 mg/kg, ip administered every two days for 18 days by immunohistochemistry. In kind it is functional, organism-based. To be noted: time 18.0 day.
As to `COc1cc2nccc(Oc3ccc(NC(=O)C4(C(=O)Nc5ccc(F)cc5)CC4)cc3)c2cc1OC` [CABOZANTINIB], the result was Active.

Test system in a further data set: not listed separately
Nature of the data set: Toxicity in BALB/c nude mouse xenografted with human A549 cells assessed as effect on body weight at 20 mg/kg, ip administered every two days for 18 days. It counts as organism-based. The settings on record: in vivo, 432 h, time 18 day.
`COc1cc2nccc(Oc3ccc(NC(=O)C4(C(=O)Nc5ccc(F)cc5)CC4)cc3)c2cc1OC` [CABOZANTINIB]: the Activity entry was “Non-Toxic”.

The subject of a further data set is A549. As to the kind of experiment: Induction of cell cycle arrest in human A549 cells assessed as accumulation at G0/G1 phase at 5 uM measured by flow cytometry (reference value: 57.68%).
Conditions: not given
In kind it is functional.
With `COc1cc2nccc(Oc3ccc(NC(=O)C4(C(=O)Nc5ccc(F)cc5)CC4)cc3)c2cc1OC` [CABOZANTINIB], the Activity worked out at 69.22%.

Another data set relates to A549. As to the kind of experiment: Induction of cell cycle arrest in human A549 cells assessed as accumulation at G2/M phase at 5 uM measured by flow cytometry (reference value: 7.98%). In kind it is functional.
Conditions: not given
With `COc1cc2nccc(Oc3ccc(NC(=O)C4(C(=O)Nc5ccc(F)cc5)CC4)cc3)c2cc1OC` [CABOZANTINIB], the Activity is recorded as 15.48%.

Another data set deals with MCF7. As to the kind of experiment: Antiproliferative activity against human MCF7 cells expressing c-Met after 48 hrs by MTT assay. The settings on record: MCF7, 48 h. In kind it is functional, cell-based.
`Cn1ccc2c(Oc3ccc(NC(=O)c4cn(-c5ccc(F)c(Cl)c5)c5ncccc5c4=O)cc3)ccnc21`: the pIC50 is 4.31.
The same measure, in the same setting: under `COc1cc2nccc(Oc3ccc(NC(=O)C4(C(=O)Nc5ccc(F)cc5)CC4)cc3)c2cc1OC` [CABOZANTINIB] stands 4.51.

The test system of another data set is A549. As to the kind of experiment: Induction of apoptosis in human A549 cells assessed as late apoptotic cells at 5 uM measured after 24 hrs by PI/Annexin V staining based flow cytometry assay (reference value: 4.49%). It counts as functional.
Conditions: not given
For the compound `COc1cc2nccc(Oc3ccc(NC(=O)C4(C(=O)Nc5ccc(F)cc5)CC4)cc3)c2cc1OC` [CABOZANTINIB], the Activity is listed as 6.89%.

A further data set concerns HeLa. Nature of the data set: Antiproliferative activity against human HeLa cells expressing c-Met after 48 hrs by MTT assay. It counts as functional, cell-based.
Conditions: not given
`COc1cc2nccc(Oc3ccc(NC(=O)C4(C(=O)Nc5ccc(F)cc5)CC4)cc3)c2cc1OC` [CABOZANTINIB] showed a negative logarithm of the IC50 (pIC50) of 4.10.

Test system in the next data set: not listed separately
Nature of the data set: Toxicity in BALB/c nude mouse xenografted with human A549 cells assessed as effect on liver at 20 mg/kg, ip administered every two days for 18 days by H and E staining method. It counts as organism-based. The settings on record: in vivo, 432 h, time 18 day.
For the compound `COc1cc2nccc(Oc3ccc(NC(=O)C4(C(=O)Nc5ccc(F)cc5)CC4)cc3)c2cc1OC` [CABOZANTINIB], the Activity entry is “Non-Toxic”.

Test system in a further data set: not listed separately
As to the kind of experiment: Toxicity in BALB/c nude mouse xenografted with human A549 cells assessed as effect on kidney at 20 mg/kg, ip administered every two days for 18 days by H and E staining method. It counts as organism-based. To be noted: in vivo, 432 h, time 18 day.
Turning to `COc1cc2nccc(Oc3ccc(NC(=O)C4(C(=O)Nc5ccc(F)cc5)CC4)cc3)c2cc1OC` [CABOZANTINIB], the Activity entry is recorded as “Non-Toxic”.

Test system in another data set: not listed separately
Nature of the data set: Toxicity in BALB/c nude mouse xenografted with human A549 cells assessed as effect on heart at 20 mg/kg, ip administered every two days for 18 days by H and E staining method. In kind it is organism-based. The settings on record: in vivo, 432 h, time 18 day.
Regarding `COc1cc2nccc(Oc3ccc(NC(=O)C4(C(=O)Nc5ccc(F)cc5)CC4)cc3)c2cc1OC` [CABOZANTINIB], the Activity entry is listed as “Non-Toxic”.

The subject of the next data set is A549. As to the kind of experiment: Antiproliferative activity against human A549 cells expressing c-Met after 48 hrs by MTT assay. The settings on record: A549, 48 h. It counts as functional, cell-based.
`Cn1ccc2c(Oc3ccc(NC(=O)c4cn(-c5ccc(F)c(Cl)c5)c5ncccc5c4=O)cc3)ccnc21` had a pIC50 of 4.82.
Same read-out and setting: next, `COc1cc2nccc(Oc3ccc(NC(=O)C4(C(=O)Nc5ccc(F)cc5)CC4)cc3)c2cc1OC` [CABOZANTINIB]: 6.48.

The test system of another data set is A549. Nature of the data set: Antitumor activity against human A549 cells xenografted in BALB/c nude mouse assessed as tumor growth inhibition at 20 mg/kg, ip administered every two days for 18 days. To be noted: A549, 432 h, time 18 day, read-out: TGI. In kind it is functional.
Consider `COc1cc2nccc(Oc3ccc(NC(=O)C4(C(=O)Nc5ccc(F)cc5)CC4)cc3)c2cc1OC` [CABOZANTINIB], for which the inhibition in vivo at 20 mg/kg came to 47.9%.

The test system of a further data set is A549. Nature of the data set: Induction of apoptosis in human A549 cells assessed as early apoptotic cells at 5 uM measured after 24 hrs by PI/Annexin V staining based flow cytometry assay (reference value: 2.5%).
Conditions: not given
In kind it is functional.
As to `COc1cc2nccc(Oc3ccc(NC(=O)C4(C(=O)Nc5ccc(F)cc5)CC4)cc3)c2cc1OC` [CABOZANTINIB], the Activity amounted to 2.32%.

The test system of another data set is A549. As to the kind of experiment: Induction of cell cycle arrest in human A549 cells assessed as accumulation at S phase at 5 uM measured by flow cytometry (reference value: 34.34%). In kind it is functional.
Conditions: not given
For `COc1cc2nccc(Oc3ccc(NC(=O)C4(C(=O)Nc5ccc(F)cc5)CC4)cc3)c2cc1OC` [CABOZANTINIB], the Activity came out at 15.31%.
